What all share (assay type): biochemical
Holding throughout (conditions): ADP-Glo SIK kinase assay
(In general: ADP-Glo turns the ADP formed in a reaction into a luminescent signal.)

The target in one assay is T1, SIK2 (Homo sapiens, UniProt Q9H0K1).
T1 construct: purchased ThermoFisher Scientific PV4792
Nature of the assay: ADP-Glo kinase assay, SIK2. The procedure:
(§1) The ADP-Glo™ kinase assay is a luminescent technology assay which measures the ADP formed from a kinase reaction. […] In a second step the kinase reactions are terminated and all the remaining ATP is depleted. In a final step the ADP is converted into ATP and this newly synthesized ATP is measured by using a luciferase/luciferin reaction. The generated light is measured using an Envision plate reader, wherein the luminescent signal obtained positively correlates with the kinase activity.
(§2) 1% DMSO and 10 μM staurosporine final concentrations are used as negative and positive controls.
(§3) 2 μL enzyme-substrate mixture is added to the assay plates.
(§4) The reaction is started by adding 2 μL diluted ATP on the assay plates. Plates are centrifuged for a few seconds at 1000 rpm and gently shaken for 2 min followed by an incubation at RT for 120 min.
(§5) The reactions are stopped and the unconsumed ATP is depleted by adding 5 μL ADP-Glo Reagent (Promega, Cat #V912B) to the reaction. The plates are centrifuged for a few seconds at 1000 rpm and incubated at RT for 40 min (ATP depletion).
(§6) The ADP is converted to ATP and luciferase and luciferin is introduced to detect ATP by adding 10 μL Kinase Detection Reagent (Promega, Cat #V913B+V914B) to the reaction. The plates are centrifuged for a few seconds at 1000 rpm and incubated at RT for 30 min (ADP detection).
(§7) Luminescence is measured on an Envision plate reader (PerkinElmer Inc.).

The next assay deals with T2, SIK1 (Homo sapiens, UniProt P57059).
T2 construct: purchased Carna Biosciences 02-131
T2 sequence (P57059 whole entry): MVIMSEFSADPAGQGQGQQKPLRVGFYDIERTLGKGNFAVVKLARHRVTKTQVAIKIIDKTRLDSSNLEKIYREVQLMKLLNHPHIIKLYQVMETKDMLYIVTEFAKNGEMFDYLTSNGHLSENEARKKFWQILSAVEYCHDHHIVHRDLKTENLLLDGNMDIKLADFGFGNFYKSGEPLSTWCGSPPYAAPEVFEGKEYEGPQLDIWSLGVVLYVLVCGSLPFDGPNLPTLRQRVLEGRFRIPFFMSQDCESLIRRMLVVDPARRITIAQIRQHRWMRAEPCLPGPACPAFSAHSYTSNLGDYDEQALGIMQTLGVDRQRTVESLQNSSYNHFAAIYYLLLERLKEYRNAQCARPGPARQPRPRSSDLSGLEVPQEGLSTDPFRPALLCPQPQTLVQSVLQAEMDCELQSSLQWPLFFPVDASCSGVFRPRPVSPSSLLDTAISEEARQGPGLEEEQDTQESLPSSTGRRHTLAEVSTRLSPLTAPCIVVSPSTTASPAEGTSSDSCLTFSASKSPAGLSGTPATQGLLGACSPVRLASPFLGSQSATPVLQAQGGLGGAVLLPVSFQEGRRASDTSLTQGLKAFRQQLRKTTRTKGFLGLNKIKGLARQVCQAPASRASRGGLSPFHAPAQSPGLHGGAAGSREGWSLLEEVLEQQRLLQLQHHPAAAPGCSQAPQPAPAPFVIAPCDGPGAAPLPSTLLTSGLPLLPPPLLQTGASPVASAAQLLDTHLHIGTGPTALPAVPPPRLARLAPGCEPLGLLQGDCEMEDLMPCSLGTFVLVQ
The assay can be described thus: ADP-Glo kinase assay, SIK1. The procedure:
as §1, §2, §3, §4, §5, §6, §7

The next assay concerns the target T3, SIK3 (Homo sapiens, UniProt Q9Y2K2).
T3 construct: purchased SignalChem S12-11G-100
The assay can be described thus: ADP-Glo kinase assay, SIK3. The procedure: as §1, §2, §3, §4, §5, §6, §7

Where only a bound is given, the exact number is not on record here.

T3 sequence (Q9Y2K2 whole entry): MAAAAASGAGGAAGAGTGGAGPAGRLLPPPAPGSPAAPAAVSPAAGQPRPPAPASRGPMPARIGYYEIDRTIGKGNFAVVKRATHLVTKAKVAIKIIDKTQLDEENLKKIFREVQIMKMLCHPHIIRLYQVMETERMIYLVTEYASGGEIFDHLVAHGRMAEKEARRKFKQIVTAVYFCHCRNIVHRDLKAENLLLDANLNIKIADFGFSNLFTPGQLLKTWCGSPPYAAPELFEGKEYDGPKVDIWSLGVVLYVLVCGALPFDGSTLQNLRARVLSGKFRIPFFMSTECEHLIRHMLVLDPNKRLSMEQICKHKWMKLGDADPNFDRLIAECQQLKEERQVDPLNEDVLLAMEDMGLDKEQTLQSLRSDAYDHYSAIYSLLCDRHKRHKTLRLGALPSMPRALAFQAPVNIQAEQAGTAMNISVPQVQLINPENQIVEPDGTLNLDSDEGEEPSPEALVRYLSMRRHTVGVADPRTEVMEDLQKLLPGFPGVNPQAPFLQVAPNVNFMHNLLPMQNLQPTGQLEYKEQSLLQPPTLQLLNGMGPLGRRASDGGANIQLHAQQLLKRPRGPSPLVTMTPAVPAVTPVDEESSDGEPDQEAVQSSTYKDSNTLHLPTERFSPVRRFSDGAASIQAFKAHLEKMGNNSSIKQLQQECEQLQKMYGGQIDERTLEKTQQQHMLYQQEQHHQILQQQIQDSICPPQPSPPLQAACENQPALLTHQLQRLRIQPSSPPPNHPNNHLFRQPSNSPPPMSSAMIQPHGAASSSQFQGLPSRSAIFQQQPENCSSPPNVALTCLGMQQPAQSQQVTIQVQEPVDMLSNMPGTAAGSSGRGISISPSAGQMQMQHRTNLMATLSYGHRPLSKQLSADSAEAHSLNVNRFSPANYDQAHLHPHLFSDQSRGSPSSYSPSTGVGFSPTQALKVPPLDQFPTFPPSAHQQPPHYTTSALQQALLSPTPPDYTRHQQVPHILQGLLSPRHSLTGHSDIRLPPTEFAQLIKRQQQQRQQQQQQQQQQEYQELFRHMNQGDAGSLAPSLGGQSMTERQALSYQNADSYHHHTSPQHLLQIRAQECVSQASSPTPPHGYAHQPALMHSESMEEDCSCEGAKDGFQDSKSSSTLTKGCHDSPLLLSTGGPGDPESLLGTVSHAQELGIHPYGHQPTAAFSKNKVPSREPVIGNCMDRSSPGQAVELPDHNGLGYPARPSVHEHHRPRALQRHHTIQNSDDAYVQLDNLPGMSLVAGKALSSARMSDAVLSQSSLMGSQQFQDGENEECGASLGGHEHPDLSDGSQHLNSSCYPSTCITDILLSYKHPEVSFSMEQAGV
T1 sequence (Q9H0K1 whole entry): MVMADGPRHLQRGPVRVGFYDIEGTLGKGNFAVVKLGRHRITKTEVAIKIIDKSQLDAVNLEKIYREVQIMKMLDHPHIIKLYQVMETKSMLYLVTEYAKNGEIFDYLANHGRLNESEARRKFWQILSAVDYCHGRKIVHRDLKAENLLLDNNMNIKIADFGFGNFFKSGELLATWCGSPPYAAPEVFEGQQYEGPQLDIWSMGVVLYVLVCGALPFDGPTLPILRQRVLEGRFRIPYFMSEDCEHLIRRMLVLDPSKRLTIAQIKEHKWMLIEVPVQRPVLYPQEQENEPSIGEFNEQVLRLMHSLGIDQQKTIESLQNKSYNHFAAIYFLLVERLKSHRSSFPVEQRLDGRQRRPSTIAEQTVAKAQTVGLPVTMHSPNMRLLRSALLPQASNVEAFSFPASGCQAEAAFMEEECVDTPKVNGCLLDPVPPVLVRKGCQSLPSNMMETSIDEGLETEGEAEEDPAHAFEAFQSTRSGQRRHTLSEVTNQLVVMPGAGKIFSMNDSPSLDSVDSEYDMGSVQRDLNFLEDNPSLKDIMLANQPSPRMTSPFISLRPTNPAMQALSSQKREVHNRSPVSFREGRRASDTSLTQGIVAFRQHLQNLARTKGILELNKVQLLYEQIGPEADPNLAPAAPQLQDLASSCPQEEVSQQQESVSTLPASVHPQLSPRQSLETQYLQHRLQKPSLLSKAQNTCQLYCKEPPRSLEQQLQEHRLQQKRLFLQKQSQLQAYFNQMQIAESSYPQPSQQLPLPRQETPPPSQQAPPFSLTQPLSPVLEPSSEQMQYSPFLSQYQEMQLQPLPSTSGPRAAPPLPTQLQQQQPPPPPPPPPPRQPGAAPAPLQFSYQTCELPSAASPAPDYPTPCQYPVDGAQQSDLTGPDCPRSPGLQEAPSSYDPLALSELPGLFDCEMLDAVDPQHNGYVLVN

On to `COc1cc(-c2cnc3cc(OC[C@H]4CNCC[C@@H]4O)ccn23)cc(OC(F)F)c1C(=O)NC1CC1` (racemic) [Cpd 373, N-cyclopropyl-2-(difluoromethoxy)-4-[7-[[(3R,4S)-4-hydroxy-3-piperidyl]methoxy]imidazo [1,2-a]pyridin-3-yl]-6-methoxy-benzamide/ N-cyclopropyl-2-(difluoromethoxy)-4-[7-[[(3S,4R)-4-hydroxy-3-piperidyl]methoxy]imidazo [1,2-a]pyridin-3-yl]-6-methoxy-benzamide mixture], for which the results for the IC50 on SIK2, against SIK1 and against SIK3 were 0.01 to 10 nM, 10 to 100 nM and 0.01 to 10 nM, respectively.
As for `COc1cc(-c2cnc3cc(OCCCN4CCCCC4)ccn23)cc(OC(F)F)c1C(=O)N[C@H]1CC[C@H]1O` (racemic) [compound 353, 2-(difluoromethoxy)-6-methoxy-4-[7-[3-(1-piperidyl)propoxy]imidazo [1,2-a]pyridin-3-yl]-N-[(1S,2R)-2-hydroxycyclobutyl] benzamide/2-(difluoromethoxy)-N-[(1R,2S)-2-hydroxycyclobutyl]-6-methoxy-4-[7-[3-(1-piperidyl)propoxy]imidazo[1,2-a]pyridin-3-yl]benzamide mixture], the values for the IC50 against SIK2, on SIK1 and on SIK3 were 0.01 to 10 nM, 100 to 500 nM and 10 to 100 nM, respectively.
`COc1cc(-c2cnc3cc(OCCCN4CCCCC4)ccn23)cc(OC(F)F)c1C(=O)N[C@@H]1CC[C@H]1O` (racemic) [compound 359, 2-(difluoromethoxy)-N-[(1R,2R)-2-hydroxycyclobutyl]-6-methoxy-4-[7-[3-(1-piperidyl)propoxy]imidazo[1,2-a]pyridin-3-yl]benzamide/2-(difluoromethoxy)-N-[(1S,2S)-2-hydroxycyclobutyl]-6-methoxy-4-[7-[3-(1-piperidyl)propoxy]imidazo[1,2-a]pyridin-3-yl]benzamide mixture]: the IC50 at SIK2 fell in the range of 0.01 to 10 nM; on SIK1, 100 to 500 nM; on SIK3, 10 to 100 nM.
Regarding `COc1cc(-c2cnc3cc(OC4CCOCC4)ccn23)cc(OC)c1C(=O)NCC(F)(F)F` [Cpd 4, 2,6-dimethoxy-4-(7-tetrahydropyran-4-yloxyimidazo[1,2-a]pyridin-3-yl)-N-(2,2,2-trifluoroethyl) benzamide], the figures for the IC50 against SIK2, against SIK1 and against SIK3 were 100 to 500 nM, more than 500 nM and 10 to 100 nM, respectively.
Regarding `COc1cc(-c2cnc3cc(OC4CCCN(C)C4)ccn23)cc(OC)c1C(=O)NCC(F)(F)F` (stereo not drawn) [Cpd 5, 2,6-dimethoxy-4-[7-[(1-methyl-3-piperidyl)oxy]imidazo[1,2-a]pyridin-3-yl]-N-(2,2,2-trifluoroethyl)benzamide], the figures for the IC50 at SIK2, against SIK1 and against SIK3 were 100 to 500 nM, more than 500 nM and 10 to 100 nM, respectively.
For `CCOCCOc1cc(-c2cnc3cc(OCCN(C)C)ccn23)cc(OC)c1C(=O)NC1CC1` [Cpd 56, N-cyclopropyl-4-[7-[2-(dimethylamino)ethoxy]imidazo [1,2-a]pyridin-3-yl]-2-(2-ethoxyethoxy)-6-methoxy-benzamide], in that order: 100 to 500 nM, more than 500 nM and 100 to 500 nM.
Take `COc1cc(-c2cnc3cc(OCC4CCC4)ccn23)cc(OC(F)F)c1C(=O)NC1CC1` [Cpd 71, 4-[7-(cyclobutylmethoxy)imidazo[1,2-a]pyridin-3-yl]-N-cyclopropyl-2-(difluoromethoxy)-6-methoxy-benzamide]: the IC50 against SIK2, against SIK1 and on SIK3 was 0.01 to 10 nM each time.
Regarding `COc1cc(-c2cnc3cc(OCc4cn(C)cn4)ccn23)cc(OC(F)F)c1C(=O)NC1CC1` [Cpd 101, N-cyclopropyl-2-(difluoromethoxy)-6-methoxy-4-[7-[(1-methylimidazol-4-yl)methoxy]imidazo[1,2-a]pyridin-3-yl]benzamide], the IC50 is 0.01 to 10 nM at SIK2, 10 to 100 nM against SIK1 and 0.01 to 10 nM at SIK3.
In the case of `COc1cc(-c2cnc3cc(OCC4CCN4)ccn23)cc(OC(F)F)c1C(=O)NC1CC1` (stereo not drawn) [Cpd 109, 4-[7-(azetidin-2-ylmethoxy)imidazo[1,2-a]pyridin-3-yl]-N-cyclopropyl-2-(difluoromethoxy)-6-methoxy-benzamide], the IC50 lay in the range of 0.01 to 10 nM against SIK2, 10 to 100 nM on SIK1 and 0.01 to 10 nM against SIK3.
Consider `COc1cc(-c2cnc3cc(OCC4COCCN4)ccn23)cc(OC(F)F)c1C(=O)NC1CC1` (stereo not drawn) [Cpd 113, N-cyclopropyl-2-(difluoromethoxy)-6-methoxy-4-[7-(morpholin-3-ylmethoxy)imidazo[1,2-a]pyridin-3-yl]benzamide], for which the values for the IC50 at SIK2, at SIK1 and at SIK3 were 0.01 to 10 nM, 10 to 100 nM and 0.01 to 10 nM, respectively.
In the case of `COc1cc(-c2cnc3cc(OCC4CCCCN4S(C)(=O)=O)ccn23)cc(OC(F)F)c1C(=O)NC1CC1` (stereo not drawn) [Cpd 129, N-cyclopropyl-2-(difluoromethoxy)-6-methoxy-4-[7-[(1-methylsulfonyl-2-piperidyl)methoxy]imidazo[1,2-a]pyridin-3-yl]benzamide], the IC50 at SIK2, at SIK1 and against SIK3 was 0.01 to 10 nM each time.
On to `COC(=O)N1CCCCC1COc1ccn2c(-c3cc(OC)c(C(=O)NC4CC4)c(OC(F)F)c3)cnc2c1` (stereo not drawn) [Cpd 130, methyl 2-[[3-[4-(cyclopropylcarbamoyl)-3-(difluoromethoxy)-5-methoxy-phenyl]imidazo[1,2-a]pyridin-7-yl]oxymethyl]piperidine-1-carboxylate], for which the IC50 against SIK2, against SIK1 and on SIK3 was 0.01 to 10 nM throughout.
Consider `COc1cc(-c2cnc3cc(OCC4CCCCN4C(C)=O)ccn23)cc(OC(F)F)c1C(=O)NC1CC1` (stereo not drawn) [Cpd 141, 4-[7-[(1-acetyl-2-piperidyl)methoxy]imidazo [1,2-a]pyridin-3-yl]-N-cyclopropyl-2-(difluoromethoxy)-6-methoxy-benzamide], for which the IC50 against SIK2, against SIK1 and at SIK3 was 0.01 to 10 nM in each case.
As for `CNC(C)(C)COc1ccn2c(-c3cc(OC)c(C(=O)NC4CC4)c(OC(F)F)c3)cnc2c1` [Cpd 153, N-cyclopropyl-2-(difluoromethoxy)-6-methoxy-4-[7-[2-methyl-2-(methylamino)propoxy]imidazo[1,2-a]pyridin-3-yl]benzamide], the IC50 against SIK2 is 0.01 to 10 nM; against SIK1, 100 to 500 nM; against SIK3, 0.01 to 10 nM.
Regarding `COc1cc(-c2cnc3cc(OCC4CCCN4)ccn23)cc(OC(F)F)c1C(=O)NC1CC1` (stereo not drawn) [Cpd 154, N-cyclopropyl-2-(difluoromethoxy)-6-methoxy-4-[7-(pyrrolidin-2-ylmethoxy)imidazo[1,2-a]pyridin-3-yl]benzamide], the IC50 against SIK2 lay within 0.01 to 10 nM; against SIK1, 10 to 100 nM; at SIK3, 0.01 to 10 nM.
For `COc1cc(-c2cnc3cc(OCc4ccccc4)ncn23)cc(OC(F)F)c1C(=O)NC1CC1` [Cpd 159, 4-(7-benzyloxyimidazo[1,2-c]pyrimidin-3-yl)-N-cyclopropyl-2-(difluoromethoxy)-6-methoxy-benzamide], the IC50 at SIK2 was in the range of 10 to 100 nM; at SIK1, 100 to 500 nM; at SIK3, 0.01 to 10 nM.
As to `CCn1ccnc1COc1ccn2c(-c3cc(OC)c(C(=O)NC4CC4)c(OC(F)F)c3)cnc2c1` [Cpd 173, N-cyclopropyl-2-(difluoromethoxy)-4-[7-[(1-ethylimidazol-2-yl)methoxy]imidazo[1,2-a]pyridin-3-yl]-6-methoxy-benzamide], the figures for the IC50 against SIK2, at SIK1 and at SIK3 were 0.01 to 10 nM, 100 to 500 nM and 0.01 to 10 nM, respectively.
As for `COc1cc(-c2cnc3cc(OCCN4CC(C)OC(C)C4)ccn23)cc(OC(F)F)c1C(=O)NC1CC1` (stereo not drawn) [Cpd 177, N-cyclopropyl-2-(difluoromethoxy)-4-[7-[2-(2,6-dimethylmorpholin-4-yl)ethoxy]imidazo [1,2-a]pyridin-3-yl]-6-methoxy-benzamide], the IC50 is 0.01 to 10 nM at SIK2, 10 to 100 nM on SIK1 and 0.01 to 10 nM on SIK3.
As to `COc1cc(-c2cnc3cc(OCCN4CCC(F)(F)CC4)ccn23)cc(OC(F)F)c1C(=O)NC1CC1` [Cpd 181, N-cyclopropyl-2-(difluoromethoxy)-4-[7-[2-(4,4-difluoro-1-piperidyl)ethoxy]imidazo [1,2-a]pyridin-3-yl]-6-methoxy-benzamide], the IC50 against SIK2 is 0.01 to 10 nM; against SIK1 it was 10 to 100 nM; against SIK3, 0.01 to 10 nM.
As to `COc1cc(-c2cnc3cc(OCC4CCCCN4CC(F)(F)F)ccn23)cc(OC(F)F)c1C(=O)NC1CC1` (stereo not drawn) [Cpd 182, N-cyclopropyl-2-(difluoromethoxy)-6-methoxy-4-[7-[[1-(2,2,2-trifluoroethyl)-2-piperidyl]methoxy]imidazo[1,2-a]pyridin-3-yl]benzamide], the IC50 against SIK2 is 10 to 100 nM; against SIK1, 10 to 100 nM; against SIK3 it was 0.01 to 10 nM.
On to `COc1cc(-c2cnc3cc(OCCN(C)c4ccccn4)ccn23)cc(OC(F)F)c1C(=O)NC1CC1` [Cpd 183, N-cyclopropyl-2-(difluoromethoxy)-6-methoxy-4-[7-[2-[methyl(2-pyridyl)amino]ethoxy]imidazo[1,2-a]pyridin-3-yl]benzamide], for which the IC50 against SIK2, against SIK1 and on SIK3 was 0.01 to 10 nM throughout.

By IC50 is commonly meant the point on the concentration scale where inhibition reaches its midpoint.

For the origin of these results see US12264156B2, “Compounds and pharmaceutical compositions thereof for the treatment of diseases” (GALAPAGOS NV, priority 2018, dated 2025).
